# Test results taken from patent US9566290B2, “Boron-containing small molecules” (Anacor Pharmaceuticals, Inc., priority 2005, dated 2017).
# Several values for one entry are separate records, joined by “and”; a condition that tells them apart may be missing. Equal entries are not always repeated. Entries after “also recorded” stand apart in the source; their conditions may differ. Where two headings read alike, the source gives them in different places.
# Key:
# [1] = tested on: S. cerevisiae ATCC201388 bearing pRS425 or CDC60 on pRS425; assay: MIC with over-expression of wild type CDC60; type: cell-based, Saccharomyces cerevisiae; details: for MIC: Saccharomyces cerevisiae
# Excerpt: (§1) The minimal inhibitory concentration (MIC) was essentially performed following the NCCLS guidelines outlined in the M27 protocol with the exception of using YPD or synthetic defined media (SDM).
# A 4.0 kb BamH I-Sal I DNA fragment containing the entire CDC60 open reading frame (ORF) and 700 bp of upstream sequence was amplified using KOD DNA polymerase, S. cerevisiae genomic DNA (Novagen, Madison, Wis., USA), and the primers GAGGGATCCGGTTAGTTTTAGTTCGCGAGTGACCTG and GAGGTCGACGATTTCTGGTTGCTGTTTATTGATCTT (Operon, Alameda, Calif., USA). This DNA fragment was then cloned into the […] multi-copy plasmid pRS425, and transformed into S. cerevisiae ATCC201388 (Gietz, R D et al., Methods in Enzymology 305: 87-96 (2002)).
# [2] = Log P determination (octanol/water) by LC/MS/MS; type: physicochemical; details: for Conc. in Octanol / Conc. in Water: partition
# Procedure: C10 (10 μL of […]) at 2× the final concentration was added to 0.5 mL pre-saturated n-octanol and mixed. An equal volume (0.5 mL) of pre-saturated water was added, vortex mixed and then mixed on a rotating shaker for one hour and 24 h in triplicate at ca. 25° C. The organic and aqueous layers were separated by centrifugation for 5 min at ca. 2000 rpm. Twenty five […] of the octanol (top) layer were removed and placed in a pre-labeled tube. Twenty five L of the aqueous layer (bottom) were removed, taking care to avoid octanol contamination, and placed in a pro-labeled tube.
# (§2) For the octanol sample, 25 μL of ethanol, 25 μL of water and 300 μL of acetonitrile containing the internal standard was added. For the water sample, 25 μL of ethanol, 25 μL of octanol and 300 μL of acetonitrile containing the internal standard [60 mL of acetonitrile add 6 μL of PNP (1000 μg/mL)] was added. For the calibrators 25 μL of octanol, 25 μL of water and 300 μL of acetonitrile containing the internal standard was added. The sample was vortexed for 10 seconds. Two hundred μL of the organic layer were transferred into a clean deactivated autosampler vial.
# (§3) A 1/concentration weighted linear regression was used for the quantitation of C10. All integration were performed with peak areas using Analyst version 1.3, Applied Biosystems. For C10, peak area ratios analyte to internal standard PNP were used for all quantitation.
# The partition coefficient (P) was calculated according to the equation detailed below: P=[Sample concentration]octanol/[Sample concentration]water Log P=log10(partition coefficient) Results: […]
# [3] = tested on: Saccharomyces cerevisiae strain ATCC 201388; assay: MIC (NCCLS M27, YPD or synthetic defined media), haploid parental strain; type: cell-based; details: Saccharomyces cerevisiae, read-out: MIC
# Procedure: The haploid Saccharomyces cerevisiae strain ATCC 201388 was used in the selection of C10 resistant mutants. Spontaneous and EMS-induced resistant mutants were isolated from YPD agar plates containing 4×, 8×, 16×MIC of C10. All minimal inhibitory concentrations (MIC) were determined using NCCLS protocol M27 with the exception of using YPD or synthetic defined media. All yeast and molecular genetic manipulations were essentially performed as described by Guthrie C., et al., Methods in Enzymology, 350: Part B, (2002).
# as §1
# [4] = Stability at room temperature in water and octanol; type: physicochemical
# Procedure: C10 (10 μL of 5000 μg/mL) was added both to 0.5 mL n-octanol and 0.5 mL water in triplicate. Samples were mixed. At 0 h and 24 h samples were stored at ca. −20° C. Twenty five L of sample was used for analysis.
# as §2, §3
# [5] = Solubility in pre-saturated n-octanol or water, visual inspection; type: physicochemical
# Procedure: N-Octanol and water were mutually pre-saturated by vigorously stirring a mixture of both solvents for up to 12 h and the mixture was allowed to separate. Solubility in each solvent was determined by adding 10 μL of 20, 40, 200, 1000 and 5000 μg/mL of C10 in DMSO to the pre-saturated n-octanol or water. After the sample was vortexed for 10 sec, the sample was centrifuged for 10 min at ca. 3000 rpm. A visual inspection was made to determine if the sample was clear or if a pellet had formed on the bottom of the tube.
smiles,measurement,setting,value
"OB1OCc2cc(F)ccc21 [C10, 5-fluorobenzo[c][1,2]oxaborol-1(3H)-ol]",increase in resistance (MIC) with additional copies of CDC60,[1]; CDC60 on multi-copy 2 μM plasmid versus same strain bearing pRS425,eight times more resistant; also recorded: eight times higher; also recorded: eight-fold
same,MIC,"[1]; ATCC201388, CDC60 on pRS425 (20 copies)",1 µg/mL
same,MIC,"[1]; ATCC201388, pRS425 Plasmid control",0.125 µg/mL
same,Log P,"[2]; 1 h, replicates",1.93
same,Log P,"[2]; 24 h, replicates",1.89 and 1.91
same,mean log P,[2]; after 24 h (n=3),1.93
same,logP at 1 h,"[2]; n-octanol/water, 1 h, replicates, read-out: Log P",2.04
same,logP at 24 h,"[2]; n-octanol/water, 24 h, replicates",1.97
same,logP at 1 h,"[2]; n-octanol/water, after 1 h (n=3), read-out: mean log P",1.97
same,Conc. in Octanol,"[2]; 1 h, replicates",108 µg/mL and 103 µg/mL and 115 µg/mL
same,Conc. in Water,"[2]; 1 h, replicates",1.26 µg/mL and 1.21 µg/mL and 1.05 µg/mL
same,Conc. in Octanol,"[2]; 24 h, replicates",109 µg/mL and 99.0 µg/mL and 104 µg/mL
same,Conc. in Water,"[2]; 24 h, replicates",1.17 µg/mL and 1.28 µg/mL and 1.27 µg/mL
same,MIC,"[3]; ATCC201388, Table 1, haploid strain ATCC201388",0.5 µg/mL
same,MIC,"[3]; ATCC201388, Table 2, ATCC201388",0.5 µg/mL
same,"stability in pure water and octanol, in words","[4]; 24 h, without continuous mixing",stable over 24 h
same,Percent Remaining 24 h versus 0 g,[4]; Octanol,93%
same,Mean,"[4]; Octanol, 0 h",115 µg/mL
same,Mean,"[4]; Octanol, 24 h",107 µg/mL
same,Percent Remaining 24 h versus 0 g,[4]; Water,115%
same,Mean,"[4]; Water, 0 h",82.5 µg/mL
same,Mean,"[4]; Water, 24 h",95.0 µg/mL
same,"solubility in octanol and water, in words",[5]; over the concentration range tested,very good
same,"Solubility, Octanol Visual",[5]; targeted conc 0.800 μg/mL,Clear
same,"Solubility, Water Visual",[5]; targeted conc 0.800 μg/mL,Clear
same,"Solubility, Octanol Visual",[5]; targeted conc 4.00 μg/mL,Clear
same,"Solubility, Water Visual",[5]; targeted conc 4.00 μg/mL,Clear
same,"Solubility, Octanol Visual",[5]; targeted conc 20.0 μg/mL,Clear
same,"Solubility, Water Visual",[5]; targeted conc 20.0 μg/mL,Clear
same,"Solubility, Octanol Visual",[5]; targeted conc 100 μg/mL,Clear
same,"Solubility, Water Visual",[5]; targeted conc 100 μg/mL,Clear
